# Measurements: ChEMBL document CHEMBL3885861, “Open TG-GATES”
# Species: Rattus norvegicus
# Test: Open TG-GATES - Regimen: Single
# Assay type: toxicity, organism-based, Sprague-Dawley
# Design: regimen Single, gender Male, age 6 weeks
# Details: in vivo, po, 300 mg/kg, route gavage, dose level Low; for RALB / TC / TG / TP / gamma-GTP / A/G / ALP / ALT / AST / BUN / CRE / Ca / Cl / GLC / IP / K / LDH / Na / PL: tissue Plasma; for APTT / Bas / Eos / Fbg / Hb / Ht / Lym / MCH / MCHC / MCV / Mono / Neu / PT / Plat / RBC / Ret / WBC: tissue Blood; for KIDNEY_L / KIDNEY_R / KIDNEY_TOTAL: tissue Kidney; for LIVER: tissue Liver
smiles,measurement,setting,value
O=C(O)c1ccccc1Nc1ccccc1 [FENAMIC ACID],RALB,6 h,2.5 g/dL
same,TC,6 h,58.6 mg/dL
same,TG,6 h,38.8 mg/dL
same,TP,6 h,5.3 g/dL
same,gamma-GTP,6 h,1.2 IU/L
same,TERMINAL_BW,9 h,205.1 g
same,APTT,9 h,17.9 s
same,Bas,9 h,0.6%
same,Eos,9 h,1%
same,Fbg,9 h,262.6 mg/dL
same,Hb,9 h,13.5 g/dL
same,Ht,9 h,40.6%
same,Lym,9 h,71.8%
same,MCH,9 h,20.9 pg
same,MCHC,9 h,33.1%
same,MCV,9 h,63.2 fL
same,Mono,9 h,2%
same,Neu,9 h,24.4%
same,PT,9 h,14.9 s
same,Plat,9 h,116.7 x10_4/uL
same,RBC,9 h,642.8 x10_4/ul
same,Ret,9 h,7.8%
same,WBC,9 h,78.3 x10_2/uL
same,KIDNEY_L,9 h,0.9 g
same,KIDNEY_R,9 h,0.9 g
same,KIDNEY_TOTAL,9 h,1.8 g
same,LIVER,9 h,7.2 g
same,A/G,9 h,0.9
same,ALP,9 h,1734.8 IU/L
same,ALT,9 h,35 IU/L
same,AST,9 h,69.6 IU/L
same,BUN,9 h,13.4 mg/dL
same,CRE,9 h,0.2 mg/dL
same,Ca,9 h,10.9 mg/dL
same,Cl,9 h,108 meq/L
same,GLC,9 h,149 mg/dL
same,IP,9 h,11 mg/dL
same,K,9 h,3.8 meq/L
same,LDH,9 h,60.6 IU/L
same,Na,9 h,146 meq/L
same,PL,9 h,121.6 mg/dL
same,RALB,9 h,2.6 g/dL
same,TC,9 h,59.4 mg/dL
same,TG,9 h,39.8 mg/dL
same,TP,9 h,5.5 g/dL
same,gamma-GTP,9 h,1.2 IU/L
same,TERMINAL_BW,24 h,218.8 g
same,APTT,24 h,17.6 s
same,Bas,24 h,0.6%
same,Eos,24 h,0.6%
same,Fbg,24 h,269.2 mg/dL
same,Hb,24 h,13.3 g/dL
same,Ht,24 h,40.1%
same,Lym,24 h,80.6%
same,MCH,24 h,20.9 pg
same,MCHC,24 h,33.1%
same,MCV,24 h,63.2 fL
same,Mono,24 h,2.6%
same,Neu,24 h,15%
same,PT,24 h,14.4 s
same,Plat,24 h,121.2 x10_4/uL
same,RBC,24 h,634.4 x10_4/ul
same,Ret,24 h,7.4%
same,WBC,24 h,115.6 x10_2/uL
same,KIDNEY_L,24 h,1 g
same,KIDNEY_R,24 h,1 g
same,KIDNEY_TOTAL,24 h,2 g
same,LIVER,24 h,10.2 g
same,A/G,24 h,0.9
same,ALP,24 h,1785.8 IU/L
same,ALT,24 h,38.6 IU/L
same,AST,24 h,71.2 IU/L
same,BUN,24 h,14 mg/dL
same,CRE,24 h,0.2 mg/dL
same,Ca,24 h,11.2 mg/dL
same,Cl,24 h,105.6 meq/L
same,GLC,24 h,173.4 mg/dL
same,IP,24 h,6.9 mg/dL
same,K,24 h,4 meq/L
same,LDH,24 h,130.6 IU/L
same,Na,24 h,144.2 meq/L
same,PL,24 h,143.2 mg/dL
same,RALB,24 h,2.6 g/dL
